How the values were obtained:
Assay type in all cases: cell-based
NK1 = NK1 (Homo sapiens, UniProt P25103); test: Signal transduction (ST), intracellular Ca++ (FLIPR), NK1 antagonism; conditions: for IC50: read-out: pIC50 NK1 (converted)
Description: (§1) This test evaluates in vitro functional NK1 antagonistic activity. For the measurements of intracellular Ca^++ concentrations the cells were grown on 96-well (black wall/transparent bottom) plates from Costar for 2 days until they reached confluence. The cells were loaded with 2 μM Fluo3 in DMEM containing 0.1% BSA and 2.5 mM probenecid for 1 h at 37° C. […] The cells were preincubated with a concentration range of antagonists for 20 min at RT and Ca^++-signals after addition of the agonists were measured in a Fluorescence Image Plate Reader (FLIPR from Molecular Devices, Crawley, England). The peak of the Ca^++-transient was considered as the relevant signal and the mean values of corresponding wells were analysed as described below.
(§2) The sigmoidal dose response curves were analysed by computerised curve-fitting, using the GraphPad Program. […] For antagonist responses the IC50-value was calculated using non-linear regression.

NK2 = molecular target: T1, NK2 (Homo sapiens, UniProt P21452); test: Signal transduction (ST), intracellular Ca++ (FLIPR), NK2; conditions: for IC50: read-out: pIC50 NK2 (converted)
T1 sequence (P21452 1-398): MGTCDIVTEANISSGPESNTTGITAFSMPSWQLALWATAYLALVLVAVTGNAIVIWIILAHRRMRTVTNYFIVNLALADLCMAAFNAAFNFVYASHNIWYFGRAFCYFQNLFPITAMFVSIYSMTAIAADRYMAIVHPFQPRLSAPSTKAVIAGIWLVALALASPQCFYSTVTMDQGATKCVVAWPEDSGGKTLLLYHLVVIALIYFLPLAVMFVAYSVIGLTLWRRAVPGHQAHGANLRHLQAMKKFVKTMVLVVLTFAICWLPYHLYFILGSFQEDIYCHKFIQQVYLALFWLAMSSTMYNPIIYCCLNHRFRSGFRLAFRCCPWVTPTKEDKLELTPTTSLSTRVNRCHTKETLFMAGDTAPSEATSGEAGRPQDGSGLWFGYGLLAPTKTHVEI
Description: [The source words this procedure for another target and reports this target under the same test.] as §1, §2

NK3 = molecular target: T2, NK3 (Homo sapiens, UniProt P29371); test: Signal transduction (ST), intracellular Ca++ (FLIPR), NK3; conditions: for IC50: read-out: pIC50 NK3 (converted)
T2 sequence (P29371 1-465): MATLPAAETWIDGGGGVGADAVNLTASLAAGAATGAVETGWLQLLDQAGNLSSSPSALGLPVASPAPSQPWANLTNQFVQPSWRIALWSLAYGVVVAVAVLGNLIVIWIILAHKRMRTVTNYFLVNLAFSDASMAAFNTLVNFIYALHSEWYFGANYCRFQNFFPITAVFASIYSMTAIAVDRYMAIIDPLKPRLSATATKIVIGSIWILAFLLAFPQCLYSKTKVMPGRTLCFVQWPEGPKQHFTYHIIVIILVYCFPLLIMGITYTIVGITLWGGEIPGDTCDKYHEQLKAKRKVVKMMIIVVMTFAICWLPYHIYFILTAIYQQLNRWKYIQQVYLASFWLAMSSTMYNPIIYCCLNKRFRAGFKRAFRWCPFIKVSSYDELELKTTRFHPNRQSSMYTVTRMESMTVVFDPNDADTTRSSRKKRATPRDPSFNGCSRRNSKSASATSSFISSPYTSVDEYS
Description: [The source words this procedure for another target and reports this target under the same test.] as §1, §2

Sequence of NK1 (P25103 whole entry): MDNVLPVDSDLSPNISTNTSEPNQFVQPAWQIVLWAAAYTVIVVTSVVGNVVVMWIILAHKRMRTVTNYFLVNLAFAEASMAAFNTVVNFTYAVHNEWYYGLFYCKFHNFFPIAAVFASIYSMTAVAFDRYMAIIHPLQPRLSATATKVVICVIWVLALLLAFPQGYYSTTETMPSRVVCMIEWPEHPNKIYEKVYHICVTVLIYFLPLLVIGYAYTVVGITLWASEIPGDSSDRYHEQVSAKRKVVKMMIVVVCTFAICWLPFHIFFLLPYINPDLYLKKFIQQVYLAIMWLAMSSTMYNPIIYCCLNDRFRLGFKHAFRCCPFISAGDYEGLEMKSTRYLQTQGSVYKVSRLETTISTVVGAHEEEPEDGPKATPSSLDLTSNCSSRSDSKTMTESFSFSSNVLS

Row | IC50 (NK1) [nM] | IC50 (NK2) [nM] | IC50 (NK3) [nM] | Compound | pIC50 NK1 (NK1) | pIC50 NK2 (NK2) | pIC50 NK3 (NK3)
1 | 12.6 | 1580 | 1000 | O=C(c1cc(C(F)(F)F)cc(C(F)(F)F)c1)N1CC[C@H](N2CCN(C3CCCN(C(CO)c4ccoc4)C3)CC2)C[C@H]1Cc1ccccc1 (stereo partly drawn) [Compound 79] | – | – | –
2 | 10 | 794 | 501 | O=C(c1cc(C(F)(F)F)cc(C(F)(F)F)c1)N1CC[C@H](N2CCN(C3CCCN(S(=O)(=O)c4cccc(O)c4)C3)CC2)C[C@H]1Cc1ccccc1 (stereo partly drawn) [Compound 80] | – | – | –
3 | 63.1 | 3160 | 7940 | O=C(OCc1ccccc1C(=O)N1CCCC(N2CCN([C@H]3CCN(C(=O)c4cc(C(F)(F)F)cc(C(F)(F)F)c4)[C@H](Cc4ccccc4)C3)CC2)C1)c1ccccc1 (stereo partly drawn) [Compound 82] | – | – | –
4 | 251 | 501 | 1260 | O=C(c1cc(C(F)(F)F)cc(C(F)(F)F)c1)N1CC[C@H](N2CCN(C3CCCN(S(=O)(=O)c4ccc(CCOCc5ccccc5)s4)C3)CC2)C[C@H]1Cc1ccccc1 (stereo partly drawn) [Compound 84] | – | – | –
5 | 79.4 | 3980 | 5010 | O=C(c1cc(COCc2ccccc2)cs1)N1CCCC(N2CCN([C@H]3CCN(C(=O)c4cc(C(F)(F)F)cc(C(F)(F)F)c4)[C@H](Cc4ccccc4)C3)CC2)C1 (stereo partly drawn) [Compound 85] | – | – | –
6 | 316 | 794 | 7940 | O=C(c1cc(C(F)(F)F)cc(C(F)(F)F)c1)N1CC[C@H](N2CCN(C3CCCN(S(=O)(=O)c4ccc(COCc5ccccc5)s4)C3)CC2)C[C@H]1Cc1ccccc1 (stereo partly drawn) [Compound 87] | – | – | –
7 | 39.8 | 2510 | 631 | O=C(c1sccc1COCc1ccccc1)N1CCCC(N2CCN([C@H]3CCN(C(=O)c4cc(C(F)(F)F)cc(C(F)(F)F)c4)[C@H](Cc4ccccc4)C3)CC2)C1 (stereo partly drawn) [Compound 88] | – | – | –
8 | 63.1 | 5010 | 7940 | O=C(c1cc(C(F)(F)F)cc(C(F)(F)F)c1)N1CC[C@H](N2CCN(C3CCCN(C(CO)c4ccccc4Cl)C3)CC2)C[C@H]1Cc1ccccc1 (stereo partly drawn) [Compound 89] | – | – | –
9 | 10 | 1000 | 3980 | CC(C)N/C(=N\C#N)N1CCCC(N2CCN(C3CCN(C(=O)c4cc(C(F)(F)F)cc(C(F)(F)F)c4)C(Cc4ccccc4)C3)CC2)C1 (stereo not drawn) [Compound 91] | – | – | –
10 | 12.6 | 501 | 158 | O=C(c1cc(C(F)(F)F)cc(C(F)(F)F)c1)N1CC[C@H](N2CCN(C3CCCN(S(=O)(=O)c4ccc(CO)s4)C3)CC2)C[C@H]1Cc1ccccc1 (stereo partly drawn) [Compound 92] | – | – | –
11 | 20 | 3980 | 1000 | COc1ccc(NC(=NC#N)N2CCCC(N3CCN([C@H]4CCN(C(=O)c5cc(C(F)(F)F)cc(C(F)(F)F)c5)[C@H](Cc5ccccc5)C4)CC3)C2)cc1 (stereo partly drawn) [Compound 94] | – | – | –
12 | 31.6 | 3160 | 1260 | COc1ccc(S(=O)(=O)N2CCCC(N3CCN([C@H]4CCN(C(=O)c5cc(C(F)(F)F)cc(C(F)(F)F)c5)[C@H](Cc5ccccc5)C4)CC3)C2)s1 (stereo partly drawn) [Compound 95] | – | – | –
13 | 15.8 | 398 | 100 | O=C(c1cc(C(F)(F)F)cc(C(F)(F)F)c1)N1CCC(N2CCN(C3CCCN(S(=O)(=O)c4cc(CCO)cs4)C3)CC2)CC1Cc1ccccc1 (stereo not drawn) [Compound 96] | – | – | –

The next lines start with the molecule.

Row | Compound | IC50 (NK1) [nM] | IC50 (NK2) [nM] | IC50 (NK3) [nM] | pIC50 NK1 (NK1) | pIC50 NK2 (NK2) | pIC50 NK3 (NK3)
14 | O=C(C(O)c1ccccc1)N1CCCC(N2CCN([C@H]3CCN(C(=O)c4cc(C(F)(F)F)cc(C(F)(F)F)c4)[C@H](Cc4ccccc4)C3)CC2)C1 (stereo partly drawn) [Compound 56] | 7.94 | 1000 | 2000 | – | – | –
15 | N#Cc1cccc(C(=O)N2CCCC(N3CCN([C@H]4CCN(C(=O)c5cc(C(F)(F)F)cc(C(F)(F)F)c5)[C@H](Cc5ccccc5)C4)CC3)C2)c1 (stereo partly drawn) [Compound 57] | 12.6 | 3160 | 794 | – | – | –
16 | O=C(c1cc(C(F)(F)F)cc(C(F)(F)F)c1)N1CCC(N2CCN(C3CCCN(S(=O)(=O)c4cccs4)C3)CC2)CC1Cc1ccccc1 (stereo not drawn) [Compound 59] | 15.8 | 3160 | 2000 | – | – | –
17 | O=C(c1cc(C(F)(F)F)cc(C(F)(F)F)c1)N1CC[C@H](N2CCN(C3CCCN(C(=O)C4(O)CC4)C3)CC2)C[C@H]1Cc1ccccc1 (stereo partly drawn) [Compound 61] | 7.94 | 3160 | 6310 | – | – | –
18 | N#Cc1ccc(C(=O)N2CCCC(N3CCN([C@H]4CCN(C(=O)c5cc(C(F)(F)F)cc(C(F)(F)F)c5)[C@H](Cc5ccccc5)C4)CC3)C2)cc1 (stereo partly drawn) [Compound 62] | 10 | 3980 | 3160 | – | – | –
19 | Cn1cnc(C(=O)N2CCCC(N3CCN([C@H]4CCN(C(=O)c5cc(C(F)(F)F)cc(C(F)(F)F)c5)[C@H](Cc5ccccc5)C4)CC3)C2)c1 (stereo partly drawn) [Compound 63] | 5.01 | 3160 | 6310 | – | – | –
20 | O=C(c1c(Cl)cccc1Cl)N1CCCC(N2CCN([C@H]3CCN(C(=O)c4cc(C(F)(F)F)cc(C(F)(F)F)c4)[C@H](Cc4ccccc4)C3)CC2)C1 (stereo partly drawn) [Compound 64] | 12.6 | 6310 | 794 | – | – | –
21 | O=C(Nc1ccccc1F)N1CCCC(N2CCN([C@H]3CCN(C(=O)c4cc(C(F)(F)F)cc(C(F)(F)F)c4)[C@H](Cc4ccccc4)C3)CC2)C1 (stereo partly drawn) [Compound 65] | 10 | 1580 | 6310 | – | – | –
22 | CC(C)NC(=O)N1CCCC(N2CCN(C3CCN(C(=O)c4cc(C(F)(F)F)cc(C(F)(F)F)c4)C(Cc4ccccc4)C3)CC2)C1 (stereo not drawn) [Compound 66] | 5.01 | 3160 | 3160 | – | – | –
23 | O=C(c1ccc(O)cc1)N1CCCC(N2CCN(C3CCN(C(=O)c4cc(C(F)(F)F)cc(C(F)(F)F)c4)C(Cc4ccccc4)C3)CC2)C1 (stereo not drawn) [Compound 67] | 6.31 | 5010 | 1580 | – | – | –
24 | COc1ccccc1S(=O)(=O)N1CCCC(N2CCN([C@H]3CCN(C(=O)c4cc(C(F)(F)F)cc(C(F)(F)F)c4)[C@H](Cc4ccccc4)C3)CC2)C1 (stereo partly drawn) [Compound 68] | – | – | – | 8.0 | 5.8 | 5.8
25 | COc1cccc(S(=O)(=O)N2CCCC(N3CCN([C@H]4CCN(C(=O)c5cc(C(F)(F)F)cc(C(F)(F)F)c5)[C@H](Cc5ccccc5)C4)CC3)C2)c1 (stereo partly drawn) [Compound 69] | – | – | – | 7.8 | 5.6 | 6.2
26 | O=C(c1cccc(O)c1)N1CCCC(N2CCN([C@H]3CCN(C(=O)c4cc(C(F)(F)F)cc(C(F)(F)F)c4)[C@H](Cc4ccccc4)C3)CC2)C1 (stereo partly drawn) [Compound 70] | 7.94 | 3980 | 1260 | – | – | –
27 | COc1ccc(S(=O)(=O)N2CCCC(N3CCN([C@H]4CCN(C(=O)c5cc(C(F)(F)F)cc(C(F)(F)F)c5)[C@H](Cc5ccccc5)C4)CC3)C2)cc1 (stereo partly drawn) [Compound 72] | 20 | 2000 | 1260 | – | – | –
28 | O=C(c1cc(C(F)(F)F)cc(C(F)(F)F)c1)N1CC[C@H](N2CCN(C3CCCN(S(=O)(=O)c4ccc(CO)cc4)C3)CC2)C[C@H]1Cc1ccccc1 (stereo partly drawn) [Compound 73] | 7.94 | 794 | 251 | – | – | –
29 | O=C(Nc1ccc(Cl)cc1)N1CCCC(N2CCN([C@H]3CCN(C(=O)c4cc(C(F)(F)F)cc(C(F)(F)F)c4)[C@H](Cc4ccccc4)C3)CC2)C1 (stereo partly drawn) [Compound 74] | – | – | – | 8.0 | 5.4 | 5.5
30 | O=C(c1cc(C(F)(F)F)cc(C(F)(F)F)c1)N1CC[C@H](N2CCN(C3CCCN(C(CO)c4ccsc4)C3)CC2)C[C@H]1Cc1ccccc1 (stereo partly drawn) [Compound 76] | 20 | 2000 | 1580 | – | – | –
31 | O=C(c1cc(C(F)(F)F)cc(C(F)(F)F)c1)N1CCC(N2CCN(C3CCCN(C(CO)c4cccs4)C3)CC2)CC1Cc1ccccc1 (stereo not drawn) [Compound 77] | 12.6 | 2000 | 3160 | – | – | –
32 | O=C(c1cc(C(F)(F)F)cc(C(F)(F)F)c1)N1CCC(N2CCN(C3CCCN(S(=O)(=O)c4ccc(O)cc4)C3)CC2)CC1Cc1ccccc1 (stereo not drawn) [Compound 78] | 3.98 | 794 | 316 | – | – | –
33 | O=C(c1cc(C(F)(F)F)cc(C(F)(F)F)c1)N1CC[C@H](N2CCN(C3CCCN(S(=O)(=O)c4ccc(CCO)s4)C3)CC2)C[C@H]1Cc1ccccc1 (stereo partly drawn) [Compound 86] | – | – | – | 8.2 | 6.4 | 6.3

From patent US7572786B2, “Substituted 1-piperidin-3-yl-4-piperidin-4-yl-piperazine derivatives and their use as neurokinin antagonists” (Janssen Pharmaceutica, N.V., priority 2002, dated 2009)
